Test results: US20030054988A1, “Modified plasminogen related peptide fragments and their use as angiogenesis inhibitors” (priority 2000, published 2003)

Legend:
[1] = test system: human umbilical vein endothelial cell (HUVEC); assay: bFGF-induced HUVEC migration; assay type: cell-based
Text: (§1) The assay used in these experiments is described by Ji et al. in Biochem. Biophys. Res. Commun. 1998 247:414-419. […] In addition, the modified peptide fragment BMS-291242 (SEQ ID NO: 12) was an extremely potent inhibitor of bFGF-induced HUVEC migration.

[2] = test system: endothelial cells in the matrigel plug; assay: In vivo Matrigel plug angiogenesis model; settings: 100 μM/plug, peptide embedded in matrigel, bFGF stimulation, nude mice
Description: Modified peptide fragments of the present invention were also evaluated in the matrigel plug model to determine their in vivo anti-angiogenic activities. To minimize the effects caused by differential pharmacokinetic properties of these compounds, the matrigel was prepared together with these peptides and the mixture was implanted into nude mice.
MATRIGEL was mixed with basic fibroblast growth factors at a final concentration of 300 μg/ml. Peptide fragments at selected doses were embedded with the MATRIGEL mixture and injected subcutaneously into mice. The animals were allowed to grow for 7 days. The plugs were then excised and the number of endothelial cells in the plug were examined histologically.

HUVEC = HUVEC proliferation in response to mitogenic stimulation; assay type: cell-based, human
Text: The anti-proliferative effects of the modified peptide fragments on endothelial cells in response to different mitogenic stimulation were also examined. The assay used in these experiments is described by Cao et al. in J. Biol. Chem. 1997 272(36):22924-22928. The modified peptide fragment BMS-291102 (SEQ ID NO: 2) was an extremely potent inhibitor of bFGF-elicited HUVEC proliferation.

[3] = test system: human umbilical vein endothelial cell (HUVEC); assay: VEGF-induced HUVEC migration; assay type: cell-based; settings: VEGF-induced/stimulated; read-out: inhibition of VEGF-induced HUVEC migration (potency class)
Text: as §1

[4] = bFGF-induced, read-out: inhibition of bFGF-induced HUVEC migration (potency class)

| Sequence | IC50 [1, 4] | reduction of number of endothelial cells in matrigel plug / inhibition of bFGF-elicited in vivo angiogenesis [2] | IC50 [3] | also measured |
| --- | --- | --- | --- | --- |
| AQDWAAQEPHRHSIFTPETNPRAGLEKNYA [BMS-291242] | < 10 nM | significantly inhibited | – | anti-proliferative activity on endothelial cells (HUVEC; mitogenic stimulus not given): moderate anti-proliferative activity |
| NYARNPDGDVGGPWAY [BMS-291203, Ac-NYARNPDGDVGGPWAY-NH2] | – | effectively reduced the number of endothelial cells | – | – |
| NYARNPDGDVGGPWAYTTNPRKLYDYADVPQA [BMS-291245] | – | significantly inhibited | – | – |
| TTNPRKLYDYADVPQA [BMS-291205, Ac-TTNPRKLYDYADVPQA-NH2] | – | – | < 100 nM | IC50 ([1]; stimulus not given, presumably bFGF, read-out: IC50, marginal inhibitory activity (HUVEC migration)): 1000 nM |
| VTGTPAQDWAAQEPHR [BMS-291102, Ac-VTGTPAQDWAAQEPHR-NH2] | – | effectively reduced the number of endothelial cells | – | IC50 (HUVEC; bFGF-elicited, read-out: inhibition of bFGF-elicited HUVEC proliferation (potency class)): < 10 nM |
| WAAQEPHRHSIFTPET [BMS-291209, Ac-WAAQEPHRHSIFTPET-NH2] | < 100 nM | – | < 10 nM | – |
